Values after ≈ are worked out from the molar mass of the structure shown. Read-outs that look alike come from different tables or passages of the source.
Test system: Neisseria gonorrhoeae strains
Format: cell-based
Source text: Untreated controls and blank wells were included.

Compound: C[C@H]1COc2c(N3CC[C@@H](Nc4ncccn4)C3)c(F)cc3c(=O)c(C(=O)O)cn1c23 [KSN-82-L22]
- MIC (strain FDA-CDC AR-BANK#0173, resistance CIP-R PEN-R TET-R): 2 µg/mL (≈ 4.7 µM)
- MIC (strain FDA-CDC AR-BANK#0174, resistance CIP-R PEN-R TET-R): 2 µg/mL (≈ 4.7 µM)
- MIC (strain FDA-CDC AR-BANK#0175, resistance CIP-S PEN-I TET-I): ≤0.03125 µg/mL
- MIC (strain FDA-CDC AR-BANK#0176, resistance CIP-R PEN-R TET-R): 2 µg/mL (≈ 4.7 µM)
- MIC (strain FDA-CDC AR-BANK#0177, resistance CIP-S PEN-I TET-R): ≤0.03125 µg/mL
- MIC (strain FDA-CDC AR-BANK#0178, resistance CIP-R PEN-R TET-R): 2 µg/mL (≈ 4.7 µM)
- MIC (strain FDA-CDC AR-BANK#0179, resistance CIP-S PEN-S TET-I): ≤0.03125 µg/mL
- MIC (strain FDA-CDC AR-BANK#0180, resistance CIP-R PEN-I TET-R): 2 µg/mL (≈ 4.7 µM)
- MIC (strain FDA-CDC AR-BANK#0181, resistance CIP-S PEN-I TET-R): ≤0.03125 µg/mL
- MIC (strain FDA-CDC AR-BANK#0182, resistance CIP-R PEN-I TET-R): 2 µg/mL (≈ 4.7 µM)
- MIC (strain FDA-CDC AR-BANK#0183, resistance CIP-R PEN-R TET-R): 2 µg/mL (≈ 4.7 µM)
- MIC (strain FDA-CDC AR-BANK#0184, resistance CIP-R PEN-R TET-R): 2 µg/mL (≈ 4.7 µM)
- MIC (strain FDA-CDC AR-BANK#0185, resistance CIP-R PEN-I TET-R): 2 µg/mL (≈ 4.7 µM)
- MIC (strain FDA-CDC AR-BANK#0186, resistance CIP-R PEN-R TET-R): 1 µg/mL (≈ 2.35 µM)
- MIC (strain FDA-CDC AR-BANK#0187, resistance CIP-R PEN-I TET-R): 2 µg/mL (≈ 4.7 µM)
- MIC (strain FDA-CDC AR-BANK#0188, resistance CIP-R PEN-I TET-R): 1 µg/mL (≈ 2.35 µM)
- MIC (strain FDA-CDC AR-BANK#0189, resistance CIP-R PEN-R TET-R): 2 µg/mL (≈ 4.7 µM)
- MIC (strain FDA-CDC AR-BANK#0190, resistance CIP-R PEN-R TET-R): 2 µg/mL (≈ 4.7 µM)
- MIC (strain FDA-CDC AR-BANK#0191, resistance CIP-R PEN-R TET-R): 2 µg/mL (≈ 4.7 µM)
- MIC (strain FDA-CDC AR-BANK#0192, resistance CIP-R PEN-R TET-R): 2 µg/mL (≈ 4.7 µM)
- MIC (strain FDA-CDC AR-BANK#0193, resistance CIP-S PEN-R TET-R): ≤0.03125 µg/mL
- MIC (strain FDA-CDC AR-BANK#0194, resistance CRO-NS CIP-S PEN-I TET-R): ≤0.03125 µg/mL
- MIC (strain FDA-CDC AR-BANK#0195, resistance CIP-R PEN-I TET-R): 2 µg/mL (≈ 4.7 µM)
- MIC (strain FDA-CDC AR-BANK#0196, resistance CIP-R PEN-R TET-R): 2 µg/mL (≈ 4.7 µM)
- MIC (strain FDA-CDC AR-BANK#0197, resistance CIP-R PEN-I TET-I): 2 µg/mL (≈ 4.7 µM)
- MIC (strain FDA-CDC AR-BANK#0198, resistance CIP-R PEN-R TET-R): 2 µg/mL (≈ 4.7 µM)
- MIC (strain FDA-CDC AR-BANK#0199, resistance CIP-S PEN-R TET-R): ≤0.03125 µg/mL
- MIC (strain FDA-CDC AR-BANK#0200, resistance CIP-R PEN-R TET-R): 2 µg/mL (≈ 4.7 µM)
- MIC (strain FDA-CDC AR-BANK#0201, resistance CIP-R PEN-R TET-R): 2 µg/mL (≈ 4.7 µM)
- MIC (strain FDA-CDC AR-BANK#0202, resistance CIP-S PEN-S TET-I): ≤0.03125 µg/mL
- MIC (strain FDA-CDC AR-BANK#0203, resistance CIP-R PEN-R TET-R): 2 µg/mL (≈ 4.7 µM)
- MIC (strain FDA-CDC AR-BANK#0204, resistance CIP-R PEN-I TET-R): 2 µg/mL (≈ 4.7 µM)
- MIC (strain FDA-CDC AR-BANK#0205, resistance CIP-R PEN-R TET-R): 2 µg/mL (≈ 4.7 µM)
- MIC (strain FDA-CDC AR-BANK#0206, resistance CIP-R PEN-R TET-R): 2 µg/mL (≈ 4.7 µM)
- MIC (strain FDA-CDC AR-BANK#0207, resistance CIP-R PEN-R TET-R): 2 µg/mL (≈ 4.7 µM)
- MIC (strain FDA-CDC AR-BANK#0208, resistance CIP-R PEN-I TET-R): 2 µg/mL (≈ 4.7 µM)
- MIC (strain FDA-CDC AR-BANK#0209, resistance CIP-R PEN-I TET-R): 2 µg/mL (≈ 4.7 µM)
- MIC (strain FDA-CDC AR-BANK#0210, resistance CIP-R PEN-I TET-I): 2 µg/mL (≈ 4.7 µM)
- MIC (strain FDA-CDC AR-BANK#0211, resistance CIP-R PEN-R TET-R): 2 µg/mL (≈ 4.7 µM)
- MIC (strain FDA-CDC AR-BANK#0212, resistance CIP-R PEN-I TET-R): 2 µg/mL (≈ 4.7 µM)
- MIC (strain FDA-CDC AR-BANK#0213, resistance CIP-R PEN-I TET-I): 1 µg/mL (≈ 2.35 µM)
- MIC (strain FDA-CDC AR-BANK#0214, resistance CIP-R PEN-R TET-R): 2 µg/mL (≈ 4.7 µM)
- MIC (strain NCTC 13817, resistance PEN-R TET-I): 0.5 µg/mL (≈ 1.18 µM)
- MIC (strain NCTC 13818, resistance CIP-R OFX-R PEN-R TET-R): 2 µg/mL (≈ 4.7 µM)
- MIC (strain NCTC 13819, resistance FEP-NS CAZ-NS CIP-R OFX-R PEN-R TET-I): 2 µg/mL (≈ 4.7 µM)
- MIC (strain NCTC 13820, resistance FEP-NS CFM-NS CAZ-NS CRO-NS CIP-R OFX-R PEN-R TET-R): 2 µg/mL (≈ 4.7 µM)
- MIC (strain NCTC 13821, resistance FEP-NS CFM-NS CAZ-NS CRO-NS CIP-R PEN-I TET-I): 2 µg/mL (≈ 4.7 µM)
- MIC (strain NCTC 13822, resistance FEP-NS CFM-NS CAZ-NS CIP-R OFX-R PEN-R TET-I): 2 µg/mL (≈ 4.7 µM)
- MIC (strain TCDC-NG08107, resistance PEN-R CFM-R CPD-R CIP-R): 2 µg/mL (≈ 4.7 µM)

— patent US20210261570A1, “ANTIBIOTIC RESISTANCE BREAKERS” (KING'S COLLEGE LONDON, priority 2017, published 2021)
